From US11274129B2, “Methods for protein tyrosine phosphorylation profiling with variant SH2 domains” (priority 2016, dated 2022)

Tests used:
[1] = system: mixture of 54 different pTyr-including peptides derived from 54 TK activation loops; experiment: Capture of pTyr-including peptides from a mixture of TK activation loop peptides, scheduled PRM; type: binding; details: for number of the 54 pTyr-including peptides captured / detected by PRM: 10 nmole SH2 domain, 10 pmole each peptide
Experimental: Equal molar amounts (10 nmole) of the wild-type (wt) human Src SH2 domain and the DM and TrM human Src SH2 Superbinders (SEQ ID NO: 14 and 5, respectively) expressed with His6 and GST tags were used to capture pTyr-including peptides from a mixture of 54 different pTyr-including peptides (10 pmole each) derived from 54 TK activation loops. The isolated peptides were identified by PRM and quantified based on the corresponding MS peak area. 1.8% of the eluted peptides were injected into a Q-Exactive (Thermo Fisher) preceded with a nano-LC system.
Shown are the amounts of pTyr-including peptides captured, based on the corresponding peak area of PRM signal, by each of the parent human Src SH2 domain and the DM and TrM human Src SH2 Superbinders.

[2] = molecular target: VEGFR1-pTyr^1213 peptide DVRpYVNAAKF; details: peptide VEGFR1-pTyr^1213 DVRpYVNAAKF; read-out: equilibrium dissociation constant (Kd); cited from earlier work
[3] = molecular target: EGFR-pTyr^978 peptide PQRpYLVIQGD; details: peptide EGFR-pTyr^978 PQRpYLVIQGD; read-out: equilibrium dissociation constant (Kd); cited from earlier work
[4] = molecular target: EGFR-pTyr^1110 peptide NPVpYHNQPLN; details: peptide EGFR-pTyr^1110 NPVpYHNQPLN; read-out: equilibrium dissociation constant (Kd); cited from earlier work
[5] = molecular target: MidT-pTyr^324 peptide EPQpYEEIPIYL; details: peptide MidT-pTyr^324 EPQpYEEIPIYL; read-out: equilibrium dissociation constant (Kd); cited from earlier work
[6] = molecular target: RSKL-pTyr^423 peptide YQHpYDLDLKD; details: peptide RSKL-pTyr^423 YQHpYDLDLKD; read-out: equilibrium dissociation constant (Kd); cited from earlier work
[7] = molecular target: ShcA-pTyr^239 peptide DHQpYYNDFPG; details: peptide ShcA-pTyr^239 DHQpYYNDFPG; read-out: equilibrium dissociation constant (Kd); cited from earlier work
[8] = molecular target: ShcA-pTyr^317 peptide DPSpYVNVQNL; details: peptide ShcA-pTyr^317 DPSpYVNVQNL; read-out: equilibrium dissociation constant (Kd); cited from earlier work
Designed peptide GGpYGG = details: read-out: equilibrium dissociation constant (Kd); cited from earlier work
[9] = BLK (pTyr389) IIDSEpYTAQEGAK, fragment ion b2
[10] = BMX (pTyr566) YVLDDQpYVSSVGTK, fragment ion b2
[11] = BTK (pTyr551) YVLDDEpYTSSVGSK, fragment ion b2
[12] = DDR1 (pTyr796/797) NLYAGDpYpYR, fragment ion b2
[13] = DDR2 (pTyr740/741) NLYSGDpYpYR, fragment ion y6
[14] = EPHA1 (pTyr781) LLDDFDGTpYETQGGK, fragment ion y9
[15] = EPHA2 (pTyr772) VLEDDPEATpYTTSGGK, fragment ion y11
[16] = EPHA3 (pTyr779) VLEDDPEAApYTTR, fragment ion y8
[17] = EPHA6 (pTyr830) VLEDDPEAApYTTTGGK, fragment ion b2
[18] = EPHA8 (pTyr793) VLEDDPDAApYTTTGGK, fragment ion y11
[19] = EPHB1 (pTyr778) YLQDDTSDPTpYTSSLGGK, fragment ion y10
[20] = EPHB2 (pTyr780) FLEDDTSDPTpYTSALGGK, fragment ion Y3
[21] = EPHB3 (pTyr792) FLEDDPSDPTpYTSSLGGK, fragment ion y10
[22] = EPHB4 (pTyr774) FLEENSSDPTpYTSSLGGK, fragment ion y10
[23] = ERBB2 (pTyr877) LLDIDETEpYHADGGK, fragment ion b3
[24] = ERBB3 (pTyr866) QLLpYSEAK, fragment ion y2
[25] = FER (pTyr714) QEDGGVpYSSSGLK, fragment ion y7
[26] = FES (pTyr713) EEADGVpYAASGGLR, fragment ion y8
[27] = FGFR1 (pTyr653/654) DIHHIDpYpYK, fragment ion b6
[28] = FGFR2 (pTyr656/657) DINNIDpYpYK, fragment ion y4
[29] = FGFR3 (pTyr647/648) DVHNLDpYpYK, fragment ion b3
[30] = FGFR4 (pTyr642/643) GVHHIDpYpYK, fragment ion b3
[31] = FRK (pTyr387) VDNEDIpYESR, fragment ion y6
[32] = GSK3 (pTyr279/216) GEPNVSpYICSR, fragment ion y6
[33] = HCK (pTyr411) VIEDNEpYTAR, fragment ion b2
[34] = INSRR (pTyr1145/1146) DVYETDpYpYR, fragment ion y5
[35] = ITK (pTyr512) FVLDDQpYTSSTGTK, fragment ion y11
[36] = JAK1 (pTyr1034/1035) EpYpYTVK, fragment ion y2
[37] = JAK2 (pTyr221) IQDpYHILTR, fragment ion Y3
[38] = JAK3 (pTyr980/981) DpYpYVVR, fragment ion y2
[39] = KIT (pTyr823) NDSNpYVVK, fragment ion b2
[40] = LMTK2 (pTyr295) EDpYIETDDK, fragment ion b2
[41] = LMTK3 (pTyr296/297) EDpYpYLTPER, fragment ion y3
[42] = MERTK (pTyr753/754) IYSGDpYpYR, fragment ion b2
[43] = MET (pTyr1234/1235) EpYpYSVHNK, fragment ion y2
[44] = MUSK (pTyr755/756) NIYSADpYpYK, fragment ion y2
[45] = NTRK1 (pTyr680/681) DIYSTDpYpYR, fragment ion b2
[46] = NTRK2 (pTyr706/707) DVYSTDpYpYR, fragment ion y4
[47] = PGFRB (pTyr857) DSNpYISK, fragment ion y2
[48] = PTK7 (pTyr960/961) DVYNSEpYpYHFR, fragment ion b2
[49] = RET (pTyr905) DVYEEDSpYVK, fragment ion b2
[50] = RON (pTyr1238/1239) EpYpYSVQQHR, fragment ion y4
[51] = ROR1 (pTyr645/646) EIYSADpYpYR, fragment ion y6
[52] = ROR2 (pTyr645/646) EVYAADpYpYK, fragment ion y5
[53] = SRC (pTyr419) LIEDNEpYTAR, fragment ion b2
[54] = SRMS (pTyr380) DDIpYSPSSSSK, fragment ion y8
[55] = TEC (pTyr519) YVLDDQpYTSSSGAK, fragment ion b2
[56] = TIE1 (pTyr1007) GEEVpYVK, fragment ion b2
[57] = TIE2 (pTyr992) GQEVpYVK, fragment ion b2
[58] = TXK (pTyr420) YVLDDEpYVSSFGAK, fragment ion b2
[59] = TYK2 (pTyr1054/1055) AVPEGHEpYpYR, fragment ion y6
[60] = VGFR1 (pTyr1053) NPDpYVR, fragment ion y3
[61] = VGFR2 (pTyr1059) DPDpYVR, fragment ion Y3

## Thr8Val/Cys10Ala: double-mutant human Src SH2 domain
[1]
  number of the 54 pTyr-including peptides captured / detected by PRM: 32
[1]; [9]
  PRM signal peak area: 0
[1]; [10]
  PRM signal peak area: 0
[1]; [11]
  PRM signal peak area: 18,246
[1]; [12]
  PRM signal peak area: 43,173
[1]; [13]
  PRM signal peak area: 16,232
[1]; [14]
  PRM signal peak area: 12,335
[1]; [15]
  PRM signal peak area: 4,858
[1]; [16]
  PRM signal peak area: 0
[1]; [17]
  PRM signal peak area: 51,066
[1]; [18]
  PRM signal peak area: 57,102
[1]; [19]
  PRM signal peak area: 0
[1]; [20]
  PRM signal peak area: 98,045
[1]; [21]
  PRM signal peak area: 14,654
[1]; [22]
  PRM signal peak area: 0
[1]; [23]
  PRM signal peak area: 4,642
[1]; [24]
  PRM signal peak area: 151,587
[1]; [25]
  PRM signal peak area: 0
[1]; [26]
  PRM signal peak area: 0
[1]; [27]
  PRM signal peak area: 28,967
[1]; [28]
  PRM signal peak area: 39,469
[1]; [29]
  PRM signal peak area: 64,641
[1]; [30]
  PRM signal peak area: 29,983
[1]; [31]
  PRM signal peak area: 0
[1]; [32]
  PRM signal peak area: 0
[1]; [33]
  PRM signal peak area: 0
[1]; [34]
  PRM signal peak area: 7,794
[1]; [35]
  PRM signal peak area: 0
[1]; [36]
  PRM signal peak area: 46,193
[1]; [37]
  PRM signal peak area: 39,232
[1]; [38]
  PRM signal peak area: 10,521
[1]; [39]
  PRM signal peak area: 0
[1]; [40]
  PRM signal peak area: 1,124
[1]; [41]
  PRM signal peak area: 78,610
[1]; [42]
  PRM signal peak area: 0
[1]; [43]
  PRM signal peak area: 70,811
[1]; [44]
  PRM signal peak area: 0
[1]; [45]
  PRM signal peak area: 30,204
[1]; [46]
  PRM signal peak area: 22,794
[1]; [47]
  PRM signal peak area: 0
[1]; [48]
  PRM signal peak area: 4,843
[1]; [49]
  PRM signal peak area: 0
[1]; [50]
  PRM signal peak area: 17,370
[1]; [51]
  PRM signal peak area: 27,661
[1]; [52]
  PRM signal peak area: 60,460
[1]; [53]
  PRM signal peak area: 0
[1]; [54]
  PRM signal peak area: 0
[1]; [55]
  PRM signal peak area: 4,818
[1]; [56]
  PRM signal peak area: 0
[1]; [57]
  PRM signal peak area: 0
[1]; [58]
  PRM signal peak area: 46,128
[1]; [59]
  PRM signal peak area: 9,679
[1]; [60]
  PRM signal peak area: 0
[1]; [61]
  PRM signal peak area: 0
[2]
  Kd: 1800 nM
[3]
  Kd: 390 nM
[4]
  Kd: 4500 nM
[5]
  Kd: 27 nM
[6]
  Kd: 900 nM
[7]
  Kd: 100 nM
[8]
  Kd: 390 nM
Designed peptide GGpYGG
  Kd: 25000 nM

## Wild type: wild-type (parent) human Src SH2 domain; SEQ ID NO: 4, His6/GST-tagged form SEQ ID NO: 10 [reference compound]
[1]
  number of the 54 pTyr-including peptides captured / detected by PRM: 22
[1]; [9]
  PRM signal peak area: 0
[1]; [10]
  PRM signal peak area: 0
[1]; [11]
  PRM signal peak area: 4,214
[1]; [12]
  PRM signal peak area: 47,729
[1]; [13]
  PRM signal peak area: 15,251
[1]; [14]
  PRM signal peak area: 0
[1]; [15]
  PRM signal peak area: 0
[1]; [16]
  PRM signal peak area: 0
[1]; [17]
  PRM signal peak area: 2,742
[1]; [18]
  PRM signal peak area: 0
[1]; [19]
  PRM signal peak area: 0
[1]; [20]
  PRM signal peak area: 10,833
[1]; [21]
  PRM signal peak area: 0
[1]; [22]
  PRM signal peak area: 0
[1]; [23]
  PRM signal peak area: 0
[1]; [24]
  PRM signal peak area: 41,881
[1]; [25]
  PRM signal peak area: 0
[1]; [26]
  PRM signal peak area: 0
[1]; [27]
  PRM signal peak area: 28,495
[1]; [28]
  PRM signal peak area: 51,625
[1]; [29]
  PRM signal peak area: 103,678
[1]; [30]
  PRM signal peak area: 29,764
[1]; [31]
  PRM signal peak area: 0
[1]; [32]
  PRM signal peak area: 0
[1]; [33]
  PRM signal peak area: 0
[1]; [34]
  PRM signal peak area: 0
[1]; [35]
  PRM signal peak area: 0
[1]; [36]
  PRM signal peak area: 58,254
[1]; [37]
  PRM signal peak area: 0
[1]; [38]
  PRM signal peak area: 23,291
[1]; [39]
  PRM signal peak area: 0
[1]; [40]
  PRM signal peak area: 0
[1]; [41]
  PRM signal peak area: 29,887
[1]; [42]
  PRM signal peak area: 0
[1]; [43]
  PRM signal peak area: 26,824
[1]; [44]
  PRM signal peak area: 47,647
[1]; [45]
  PRM signal peak area: 21,736
[1]; [46]
  PRM signal peak area: 39,632
[1]; [47]
  PRM signal peak area: 0
[1]; [48]
  PRM signal peak area: 0
[1]; [49]
  PRM signal peak area: 0
[1]; [50]
  PRM signal peak area: 5,434
[1]; [51]
  PRM signal peak area: 32,356
[1]; [52]
  PRM signal peak area: 85,894
[1]; [53]
  PRM signal peak area: 0
[1]; [54]
  PRM signal peak area: 0
[1]; [55]
  PRM signal peak area: 0
[1]; [56]
  PRM signal peak area: 0
[1]; [57]
  PRM signal peak area: 0
[1]; [58]
  PRM signal peak area: 1,519
[1]; [59]
  PRM signal peak area: 11,551
[1]; [60]
  PRM signal peak area: 0
[1]; [61]
  PRM signal peak area: 0
[2]
  Kd: 6500 nM
[3]
  Kd: 3700 nM
[4]
  Kd: 6900 nM
[5]
  Kd: 130 nM
[6]
  Kd: 3900 nM
[7]
  Kd: 700 nM
[8]
  Kd: 2200 nM
Designed peptide GGpYGG
  Kd: > 30000 nM
